Measurements reported in ChEMBL document CHEMBL1909046, “DrugMatrix in vitro pharmacology data”.
pIC50, pKi: −log10 of the molar value.

Experiments:
[1] = biological target: T1, Cysteinyl leukotriene receptor 1 (Homo sapiens, UniProt Q9Y271); assay type: cell membranes, Membrane; conditions: cho-k1; note: in other assays of this panel Not Active means under 50% inhibition at 10 µM
T1 sequence (Q9Y271 whole entry): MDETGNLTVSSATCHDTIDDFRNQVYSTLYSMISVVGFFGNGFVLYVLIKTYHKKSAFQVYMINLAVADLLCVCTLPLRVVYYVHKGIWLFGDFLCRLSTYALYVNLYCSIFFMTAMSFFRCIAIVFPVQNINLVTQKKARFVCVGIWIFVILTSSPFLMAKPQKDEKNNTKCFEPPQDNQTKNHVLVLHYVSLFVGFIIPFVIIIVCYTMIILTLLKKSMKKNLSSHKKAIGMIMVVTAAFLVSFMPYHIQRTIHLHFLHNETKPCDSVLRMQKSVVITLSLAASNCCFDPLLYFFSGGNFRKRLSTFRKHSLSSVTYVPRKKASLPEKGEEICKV

[2] = biological target: 5-hydroxytryptamine receptor 6 (Homo sapiens, UniProt P50406); assay type: cell membranes, HeLa, Membrane; conditions: for IC50 / Ki: hela; for all read-outs here: in other assays of this panel Not Active means under 50% inhibition at 10 µM
Chain of 5-hydroxytryptamine receptor 6 (P50406 whole entry): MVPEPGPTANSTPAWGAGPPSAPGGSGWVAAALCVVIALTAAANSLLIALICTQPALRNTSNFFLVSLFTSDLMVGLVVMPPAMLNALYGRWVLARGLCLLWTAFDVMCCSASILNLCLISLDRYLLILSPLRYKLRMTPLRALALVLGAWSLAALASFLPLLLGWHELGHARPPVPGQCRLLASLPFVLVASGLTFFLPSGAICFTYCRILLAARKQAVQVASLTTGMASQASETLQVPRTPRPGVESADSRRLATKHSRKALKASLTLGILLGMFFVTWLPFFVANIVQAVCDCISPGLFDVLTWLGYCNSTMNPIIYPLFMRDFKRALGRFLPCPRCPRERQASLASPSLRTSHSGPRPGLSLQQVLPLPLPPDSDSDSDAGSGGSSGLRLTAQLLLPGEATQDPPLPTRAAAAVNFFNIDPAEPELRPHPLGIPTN

[3] = biological target: C-C chemokine receptor type 5 (Homo sapiens, UniProt P51681); assay type: cell membranes, Membrane; conditions: hek293; note: in other assays of this panel Not Active means under 50% inhibition at 10 µM
Chain of C-C chemokine receptor type 5 (P51681 whole entry): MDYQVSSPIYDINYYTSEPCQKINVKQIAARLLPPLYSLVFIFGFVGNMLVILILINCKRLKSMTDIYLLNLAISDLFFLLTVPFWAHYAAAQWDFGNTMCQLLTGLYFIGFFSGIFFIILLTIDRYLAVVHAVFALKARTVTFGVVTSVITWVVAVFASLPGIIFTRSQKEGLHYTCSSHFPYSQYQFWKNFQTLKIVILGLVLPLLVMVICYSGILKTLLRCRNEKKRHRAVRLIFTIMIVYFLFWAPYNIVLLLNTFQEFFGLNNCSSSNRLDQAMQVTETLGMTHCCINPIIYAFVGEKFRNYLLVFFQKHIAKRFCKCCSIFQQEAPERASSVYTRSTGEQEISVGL

Glucocorticoid receptor = biological target: T2, Glucocorticoid receptor (Homo sapiens, UniProt P04150); conditions: hela s3; note: in other assays of this panel Not Active means under 50% inhibition at 10 µM
T2 sequence (P04150 whole entry): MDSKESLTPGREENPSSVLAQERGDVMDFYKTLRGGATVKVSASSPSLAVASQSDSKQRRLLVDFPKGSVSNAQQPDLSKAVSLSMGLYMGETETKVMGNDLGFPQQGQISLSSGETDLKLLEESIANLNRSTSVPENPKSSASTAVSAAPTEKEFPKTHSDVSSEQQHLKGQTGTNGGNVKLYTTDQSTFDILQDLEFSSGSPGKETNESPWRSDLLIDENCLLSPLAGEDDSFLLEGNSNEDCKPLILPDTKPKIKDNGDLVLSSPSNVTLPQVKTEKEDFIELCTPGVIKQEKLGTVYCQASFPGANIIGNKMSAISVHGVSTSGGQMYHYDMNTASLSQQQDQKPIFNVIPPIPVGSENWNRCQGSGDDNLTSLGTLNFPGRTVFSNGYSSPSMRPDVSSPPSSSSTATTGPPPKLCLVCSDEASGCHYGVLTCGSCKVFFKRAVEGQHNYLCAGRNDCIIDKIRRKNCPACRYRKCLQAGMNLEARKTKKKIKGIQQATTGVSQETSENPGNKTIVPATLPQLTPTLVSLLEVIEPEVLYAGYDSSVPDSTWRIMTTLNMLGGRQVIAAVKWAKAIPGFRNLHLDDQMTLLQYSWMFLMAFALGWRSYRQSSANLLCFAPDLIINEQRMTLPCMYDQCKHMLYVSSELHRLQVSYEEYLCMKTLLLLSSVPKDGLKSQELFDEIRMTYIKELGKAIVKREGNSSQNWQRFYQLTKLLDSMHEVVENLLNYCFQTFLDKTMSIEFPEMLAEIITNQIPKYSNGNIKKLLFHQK

Adenosine receptor A1 = biological target: T3, Adenosine receptor A1 (Homo sapiens, UniProt P30542); assay type: cell membranes, CHO, Membrane; conditions: cho
T3 sequence (P30542 whole entry): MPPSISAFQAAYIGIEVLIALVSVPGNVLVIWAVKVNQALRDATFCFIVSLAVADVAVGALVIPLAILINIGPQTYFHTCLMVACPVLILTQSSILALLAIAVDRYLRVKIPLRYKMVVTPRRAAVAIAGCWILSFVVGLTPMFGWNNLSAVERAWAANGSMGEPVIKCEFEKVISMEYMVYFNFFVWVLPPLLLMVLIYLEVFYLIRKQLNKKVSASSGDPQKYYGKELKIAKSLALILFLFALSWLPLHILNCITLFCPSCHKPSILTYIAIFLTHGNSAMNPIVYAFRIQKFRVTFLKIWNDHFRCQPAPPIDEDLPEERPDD

[4] = biological target: cGMP-specific 3',5'-cyclic phosphodiesterase (Homo sapiens, UniProt O76074); test: DRUGMATRIX: Phosphodiesterase PDE5 enzyme inhibition (substrate: [3H]cGMP + cGMP); assay type: tissue-based, Platelet; conditions: platelet; Not Active = under 50% inhibition at 10 µM

| Compound | IC50 [1] | IC50 [2] | IC50 [3] | IC50 (Glucocorticoid receptor) | IC50 (Adenosine receptor A1) | IC50 [4] | Ki [1] | Ki [2] | Ki [3] | Ki (Glucocorticoid receptor) | Ki (Adenosine receptor A1) | Ki [4] | pIC50 ([2]; read-out: IC50) | pKi ([2]; read-out: Ki) |
| --- | --- | --- | --- | --- | --- | --- | --- | --- | --- | --- | --- | --- | --- | --- |
| O=C(c1ccccc1C(F)(F)F)N1CCC(Cc2ccccc2)CC1 | Not Active | Not Active | Not Active | Not Active | Not Active | Not Active |  |  |  |  |  |  |  |  |
| CCC1(C)CC(=O)NC1=O (stereo unspecified) [ETHOSUXIMIDE] | Not Active | Not Active | Not Active | Not Active | Not Active | Not Active |  |  |  |  |  |  |  |  |
| GRAMICIDIN | Not Active | Not Active | Not Active | Not Active | Not Active | Not Active | Not Active | Not Active | Not Active | Not Active | Not Active | Not Active |  |  |
| Cc1c(OCC(F)(F)F)ccnc1C[S+]([O-])c1nc2ccccc2[nH]1 (stereo unspecified) [LANSOPRAZOLE] | Not Active | Not Active | Not Active | Not Active | Not Active | Not Active |  |  |  |  |  |  |  |  |
| CCCOc1ccc(C(=O)OCCN(CC)CC)cc1N [PROPARACAINE] | Not Active | Not Active | Not Active | Not Active | Not Active | Not Active |  |  |  |  |  |  |  |  |
| CN(C)CC[C@@H](c1ccc(Cl)cc1)c1ccccn1 [DEXCHLORPHENIRAMINE] | Not Active | Not Active | Not Active | Not Active | Not Active | Not Active |  |  |  |  |  |  |  |  |
| CC[C@H](C)[C@H]1O[C@]2(C=C[C@@H]1C)C[C@@H]1C[C@@H](C/C=C(\C)[C@@H](O[C@H]3C[C@H](OC)[C@@H](O[C@H]4C[C@H](OC)[C@@H](O)[C@H](C)O4)[C@H](C)O3)[C@@H](C)/C=C/C=C3\CO[C@@H]4[C@H](O)C(C)=C[C@@H](C(=O)O1)[C@]34O)O2.CO[C@H]1C[C@H](O[C@H]2[C@H](C)O[C@@H](O[C@@H]3/C(C)=C/C[C@@H]4C[C@@H](C[C@]5(C=C[C@H](C)[C@@H](C(C)C)O5)O4)OC(=O)[C@@H]4C=C(C)[C@@H](O)[C@H]5OC/C(=C\C=C\[C@@H]3C)[C@]54O)C[C@@H]2OC)O[C@@H](C)[C@@H]1O [ABAMECTIN] | Not Active | Not Active | Not Active | Not Active | Not Active | Not Active |  |  |  |  |  |  |  |  |
| C[C@@H]1O[C@@H](O[C@@H]2C=C3CC[C@@H]4[C@H](CC[C@]5(C)[C@@H](c6ccc(=O)oc6)CC[C@]45O)[C@@]3(C)CC2)[C@H](O)[C@H](O)[C@H]1O [PROSCILLARIDIN] | Not Active | Not Active | Not Active | Not Active | Not Active | Not Active |  |  |  |  |  |  |  |  |
| CN(C)[C@@H]1C(O)=C(C(N)=O)C(=O)[C@@]2(O)C(O)=C3C(=O)c4c(O)ccc(Cl)c4[C@@](C)(O)[C@H]3C[C@@H]12 [CHLORTETRACYCLINE] | Not Active | Not Active | Not Active | Not Active | Not Active | Not Active |  |  |  |  |  |  |  |  |
| Nc1ccn([C@@H]2O[C@H](CO)[C@@H](O)[C@@H]2O)c(=O)n1 [CYTARABINE] | Not Active | Not Active | Not Active | Not Active | Not Active | Not Active |  |  |  |  |  |  |  |  |
| NYSTATIN | Not Active | Not Active | Not Active | Not Active | Not Active | Not Active | Not Active | Not Active | Not Active | Not Active | Not Active | Not Active |  |  |
| Cc1cc2c(OCC(CNC(C)(C)C)OC(=O)c3ccccc3)cccc2[nH]1 (stereo unspecified) [BOPINDOLOL] | Not Active | Not Active | Not Active | Not Active | Not Active | Not Active |  |  |  |  |  |  |  |  |
| C[C@@H](CO)NC(=O)[C@@H]1C=C2c3cccc4[nH]cc(c34)C[C@H]2N(C)C1 [ERGONOVINE] | Not Active |  | Not Active | Not Active | Not Active | Not Active |  |  |  |  |  |  | 8.49 | 8.82 |
| CC(=O)O[C@H]1C(=O)[C@@]2(C)[C@H]([C@H](OC(=O)c3ccccc3)[C@]3(O)C[C@H](OC(=O)[C@H](O)[C@@H](NC(=O)c4ccccc4)c4ccccc4)C(C)=C1C3(C)C)[C@]1(OC(C)=O)CO[C@@H]1C[C@@H]2O [PACLITAXEL] | Not Active | Not Active | Not Active | Not Active | Not Active | Not Active |  |  |  |  |  |  |  |  |
| Nc1ccn([C@@H]2O[C@H](CO)[C@@H](O)C2(F)F)c(=O)n1 [GEMCITABINE] | Not Active | Not Active | Not Active | Not Active | Not Active | Not Active |  |  |  |  |  |  |  |  |
| COc1cc(N)c(Cl)cc1C(=O)NC1CCN(CCCOc2ccc(F)cc2)CC1OC (stereo unspecified) [CISAPRIDE] | Not Active | Not Active | Not Active | Not Active | Not Active | Not Active |  |  |  |  |  |  |  |  |
| O=C(O)c1cccnc1Nc1cccc(C(F)(F)F)c1 [NIFLUMIC ACID] | Not Active | Not Active | Not Active | Not Active | Not Active | Not Active |  |  |  |  |  |  |  |  |
| GENTAMICIN | Not Active | Not Active | Not Active | Not Active | Not Active | Not Active | Not Active | Not Active | Not Active | Not Active | Not Active | Not Active |  |  |
| COc1ccc2[nH]cc(CCNC(C)=O)c2c1 [MELATONIN] | Not Active | Not Active | Not Active | Not Active | Not Active | Not Active |  |  |  |  |  |  |  |  |
| CC(C)NCC(O)COc1cccc2[nH]ccc12 (stereo unspecified) [PINDOLOL] | Not Active | Not Active | Not Active | Not Active | Not Active | Not Active |  |  |  |  |  |  |  |  |
| N=C(N)NC(=O)Cc1c(Cl)cccc1Cl [GUANFACINE] | Not Active | Not Active | Not Active | Not Active | Not Active | Not Active |  |  |  |  |  |  |  |  |
| O=C(N/N=C/c1ccc([N+](=O)[O-])o1)c1cc([N+](=O)[O-])cc([N+](=O)[O-])c1O [NIFURSOL] | Not Active | Not Active | Not Active | Not Active | Not Active | Not Active |  |  |  |  |  |  |  |  |
| COc1cc2nc(N3CCN(C(=O)c4ccco4)CC3)nc(N)c2cc1OC [PRAZOSIN] | Not Active | Not Active | Not Active | Not Active | Not Active | Not Active |  |  |  |  |  |  |  |  |
| CC(C)NNC(=O)c1ccncc1 [IPRONIAZID] | Not Active | Not Active | Not Active | Not Active | Not Active | Not Active |  |  |  |  |  |  |  |  |
| COc1ccc2c3c1O[C@H]1C[C@@H](O)C=C[C@@]31CCN(C)C2 [GALANTAMINE] | Not Active | Not Active | Not Active | Not Active | Not Active | Not Active |  |  |  |  |  |  |  |  |
| O=C(O)CCNC(=O)c1ccccc1 [BETAMIPRON] | Not Active | Not Active | Not Active | Not Active | Not Active | Not Active |  |  |  |  |  |  |  |  |
| C#C[C@]1(OC(C)=O)CC[C@H]2[C@@H]3CCC4=C[C@@H](OC(C)=O)CC[C@@H]4[C@H]3CC[C@@]21C [ETHYNODIOL DIACETATE] | Not Active | Not Active | Not Active | Not Active | Not Active | Not Active |  |  |  |  |  |  |  |  |
